# According to patent US10450378B2, “Cytotoxic and anti-mitotic compounds, and methods of using the same” (priority 2014, dated 2019):
# Legend:
# Jurkat cell line = experiment: Cytotoxicity of compounds of Formula I, Example 3 (CellTiter-Glo); type: cell-based, Human; details: Homo sapiens, 72 h, 3 days incubation, CellTiter-Glo, read-out: EC50
# Procedure: (§1) Compounds were tested on Jurkat and HCC1954 cell lines to assess their cytotoxicity. Compounds were titrated 1:3 starting at various concentrations (30 nM to 1000 nM). Control cytotoxin HTI-286 (see, e.g., U.S. Pat. No. 7,579,323) was also titrated 1:3 across starting with a 30 nM concentration. Plates were incubated for 3 days. Cell viability was quantified using 30 μL/well of 1× CellTiter-Glo reagent.
# (§2) Each cell line was grown in its respective growth medium until seeding day. Cells were removed from their culture vessels and the resulting cell suspension was counted using the ViCell. Cells were then diluted in their growth medium to 25000/mL such that 100 μL/well=2500 cells/well. Each cell line was seeded in the inner 60 wells of 96-well black walled TC plates, outer wells filled with water. HCC1954 were seeded a day prior to assay set up. Cytotoxins were diluted as described below a 5× dose-response of each compound was prepared using RPMI+10% FBS in a deep-well 96-well plate. This “master” dilution plate was used for each cell line. 25 μL of the 5× dose responses was spiked into each cell line in triplicate. The plates were returned to the incubator and were incubated for 3 nights. After the 3 nights, cell viability was quantified using 30 μL/well of 1× CellTiter-glo reagent. After at least 10 minutes of incubation, the luminescence was measured using the SpectraMax (500 ms integration).
# HCC1954 cell line = experiment: as above; type: cell-based; details: Homo sapiens, 72 h, 3 days incubation
# Procedure: as §1, §2
# [1] = test system: Human Pancreatic cell line BxPC-3; experiment: Cellular cytotoxicity of compounds of Formula I, Example 3.1; type: cell-based; details: five nights, CellTiter-Glo
# Procedure: (§3) Compounds were tested on one or more of Human T-cell leukemia cell line Jurkat (ATCC: TIB-152); Human breast cancer cell lines HCC1954 (ATCC: CRL-2338) and JIMT-1 (DSMZ: ACC 589); Human Pancreatic cell line BxPC-3 (ATCC: CRL.1687), Human ovarian adenocarcinoma cell line SK-OV-3 (ATCC: HTB-77) and Human gastric carcinoma cell line NCI-N87 (ATCC: CRL. 5822); to assess their cytotoxicity.
# (§4) Briefly, cells were obtained from commercial sources and cultured as described in the product sheet provided. Cells were removed from their culture vessels and the resulting cell suspension was counted using a ViCell (Beckman Coulter), then seeded at 25,000 cells/mL (2,500 cells/well) in Costar 3904 black walled, flat bottomed 96-well plates (cells were seeded in the inner 60 wells of 96-well TC plates, and outer edge wells filled with water). Adherent cell lines were incubated for one night at 37° C./5% CO2 atmosphere to allow the cells to attach to the microtiter plate surface, while suspension (Jurkat) cells were plated immediately before use. Cytotoxins were dissolved and serially diluted in dimethyl sulfoxide and then the solutions were added to complete growth medium at five-times the desired maximum final concentration. The cytotoxins were then titrated in growth medium, normally 1:3, over eight steps. A control with no test article present (growth medium alone) was included on each microtiter plate in sextuplicate. The prepared toxin titrations were added (25 μL/well) in triplicate to each cell line assayed. The cells and titrations were incubated at 37° C./5% CO2 for three nights (Jurkat) and five nights (all other cell lines). After the incubation, cell viability was measured using CellTiter-Glo® by adding 30 μL of prepared CellTiter-Glo® reagent to each assay well. The mixtures were incubated for at least twenty minutes in the dark prior to measuring emitted luminescence using a microplate luminometer (500 ms integration time). The collected relative luminescence units (RLU) were converted to % cytotoxicity using the growth medium alone control mentioned above (% Cytotoxicity=1-[well RLU/average medium alone control RLU]×100%).
# [2] = test system: Human T-cell leukemia cell line Jurkat; experiment: as above; type: cell-based; details: Homo sapiens; Jurkat; three nights; CellTiter-Glo; read-out: EC50 (nM) Jurkat
# Procedure: as §3, §4
# [3] = test system: Human breast cancer cell line HCC1954; experiment: as above; type: cell-based; details: five nights, CellTiter-Glo, read-out: EC50 (nM) HCC-1954
# Procedure: as §3, §4
# [4] = test system: Human breast cancer cell line JIMT-1; experiment: as above; type: cell-based; details: five nights, CellTiter-Glo
# Procedure: as §3, §4
# [5] = test system: Human gastric carcinoma cell line NCI-N87; experiment: as above; type: cell-based; details: five nights, CellTiter-Glo
# Procedure: as §3, §4
# [6] = test system: Human ovarian adenocarcinoma cell line SK-OV-3; experiment: as above; type: cell-based; details: five nights, CellTiter-Glo, read-out: EC50 (nM) SKOV-3
# Procedure: as §3, §4
# Jurkat cells = experiment: Cell cycle arrest assay; type: cell-based, Human; details: 50 nM, 24 h, propidium iodide
# Procedure: Jurkat cells (ATCC), cultured in RMPI-1640 media supplemented with 10% FBS, were obtained in logarithmic growth. 1 million cells/ml were seeded into a 12-well tissue-culture treated plate in a 950 μL, volume. Cells were treated with Compound 5 in 50 μL of growth media such that the final concentration of Compound 5 was 50 nM, control cells were given 50 μL of growth media alone. Cells were incubated for 24 h at 37° C., 5% CO2 in a humidified incubator. Following incubation, cells were thoroughly resuspended and transferred to 5 mL FACS tubes, and stored on ice. Two washes were performed by spinning cells down in a swinging-bucket centrifuge at 450×g for 4 min, resuspending in 1 mL ice-cold PBS. Cells were fixed through the addition of 3 mL ice-cold 100% ethanol in a dropwise fashion under vortex, and immediately stored at 4° C. for 1 h. During the 1 h incubation, the following staining solution was prepared in ice-cold PBS: 10 μg/ml propidium iodide, 10 U/ml RNAse 1f, and 0.05% Triton X-100. Following the 1 h fixation incubation, ethanol was removed by spinning cells as described above, and washing twice in 1 mL ice-cold PBS. Cells were resuspended in 500 μL of the above-mentioned staining solution, and incubated at room temperature for 1 h. […] Histograms were generated using FCS Express, plotting # of events against fluorescence in FL-3.
smiles,measurement,setting,value
"CC[C@H](C)[C@@H]([C@@H](CC(=O)N1CCC[C@H]1[C@H](OC)[C@@H](C)C(=O)NS(=O)(=O)c1ccc(N)cc1)OC)N(C)C(=O)[C@@H](NC(=O)[C@H](C(C)C)N(C)C)C(C)C [Compound 5, (S)-N-((3R,4S,5S)-1-((S)-2-((1R,2R)-3-(4-Aminophenylsulfonamido)-1-methoxy-2-methyl-3-oxopropyl)pyrrolidin-1-yl)-3-methoxy-5-methyl-1-oxoheptan-4-yl)-2-((S)-2-(dimethylamino)-3-methylbutanamido)-N,3-dimethylbutanamide]",EC50,Jurkat cell line,16.8 nM
same,EC50,HCC1954 cell line,8.9 nM
same,EC50,[1],18.2 nM
same,EC50,[2],13.6 nM
same,EC50,[3],8.9 nM
same,EC50,[4],9.3 nM
same,EC50,[5],12 nM
same,EC50,[6],23.7 nM
same,Cell cycle phase (DNA content histograms),Jurkat cells,pronounced shift towards G2/M phase
